Results as given in PMC12402003 (Frontiers in Nutrition, 2025).

Experiments:
[1] = test system: Caco-2 cell monolayers; assay: Bidirectional transport across Caco-2 cell monolayer; type: in vitro ADME, human; conditions: 50 μmol/L, no inhibitor
Experimental: The cells were seeded at a density of approximately 10^5 cells/cm^2 on TranswellTM filter (Corning Inc., Lowell, MA) and cultured for 21 d before use. Cell monolayer integrity was controlled by the measurement of trans-epithelial electrical resistance (TEER) with an EVOM epithelial voltammeter equipped with an electrode (World Precision Instruments, Sarasota, FL, United States). […] (a) R(%)=CBL×VBL/CAP×VAP×100 In this, R represents the absorption rate (as a percentage); CBL is the anthocyanin concentration of the BL side (in μM); VBL is the volume of anthocyanins from the BL (in L); CAP is the initial anthocyanin concentration of the AP side (in μM), and VAP is the volume of anthocyanins in the AP chamber (in L). The absorption rate of anthocyanins from BL to AP is calculated using the following Equation b: (b) R(%)=CAP×VAP/CBL×VBL×100 In this, R represents the absorption rate (as a percentage); CAP is the anthocyanin concentration from the AP side (in μM); VAP is the volume of anthocyanins in the AP chamber (in mL); CBL is the initial concentration from the BL side (in μM) and VBL is the volume of anthocyanins in the BL chamber (in L).

[2] = test system: Fasn; assay: Western blot of Fasn protein in Caco-2/HepG2 co-culture; type: cell-based, human; conditions: 1 mM OA vs. control, p < 0.01
Experimental: Cells from the co-culture model were lysed and supernatants were collected. The protein concentrations were determined using the BCA Protein Quantitation Kit. Then electrophoresis of samples was conducted using a SDS-PAGE kit (Beyotime Biotechnology) following the manufacturer’s instructions and transferred to poly-vinylidene difluoride (PVDF) membrane. Next, membranes were incubated in 5% nonfat milk to block non-specific antibody binding for 30 min at room temperature and followed by incubating with primary antibodies and secondary antibodies. Chemiluminescence based-images of the blots were acquired using ImageQuant LAS 500 system (GE, United States). Protein bands were quantified using ImageJ (version 1.53a) software. The changes in expression levels of these proteins detected finally are used to evaluate the sample’s effect on lipid metabolism.

[3] = test system: HepG2 cells; assay: TG and TC content in OA-induced high-fat HepG2 cells; type: cell-based, human; conditions: 1 mM OA high-fat model vs control group
Experimental: For high fat HepG2 model: […] Afterwards, cells were harvested and lysed. […] For TG and TC assay: […] The medium was removed and the cells were washed twice with PBS. The levels of triglycerides (TG) and total cholesterol (TC) in the cells were determined according to the instructions of test kits.

Row | SMILES | ER (efflux rate) ([1]; 30 min) | Papp (AP → BL) ([1]; 30 min) | ER (efflux rate) ([1]; 60 min) | Papp (AP → BL) ([1]; 60 min) | ER (efflux rate) ([1]; 90 min) | Papp (AP → BL) ([1]; 90 min) | ER (efflux rate) ([1]; 120 min) | Papp (AP → BL) ([1]; 120 min) | ER (efflux rate) ([1]; 150 min) | Papp (AP → BL) ([1]; 150 min) | Fasn protein expression level [2] | increase of TC level [3] | increase of TG level [3]
1 | O=C1OC2(c3ccc(O)cc3Oc3cc(O)ccc32)c2ccccc21 [Fluorescin, Fluorescein, reference compound] | 0.56 | 5.75 ± 0.17 ×10^−5 cm /s | 0.34 | 5.07 ± 1.72 ×10^−5 cm /s | 0.3 | 4.59 ± 2.21 ×10^−5 cm /s | 0.27 | 4.6 ± 2.63 ×10^−5 cm /s | 0.25 | 4.65 ± 2.94 ×10^−5 cm /s | – | – | –
2 | CCCCCCCC/C=C\CCCCCCCC(=O)O [OA, Oleic acid] | – | – | – | – | – | – | – | – | – | – | 1.59 ± 0.16 fold | 12% | 22%
